According to US11446287B2, “Compounds and methods for EP300 or CBP modulation and indications therefor” (Opna Immuno-Oncology SA, priority 2019, dated 2022):

The compounds below were run against T1, Recombinant human CBP containing the bromodomain (CBP-BD (1043-1159)) (Homo sapiens, UniProt Q92793) (assay: CBP Alphascreen binding assay). Conditions: read-out: CREBBP (CBP) IC50.
T1 construct: Recombinant human CBP bromodomain (CBP-BD (1043-1159)); made in house; host or cells: E. coli BL21-CodonPlus (DE3), modified pET vector
T1 sequence (Q92793 1081-1197): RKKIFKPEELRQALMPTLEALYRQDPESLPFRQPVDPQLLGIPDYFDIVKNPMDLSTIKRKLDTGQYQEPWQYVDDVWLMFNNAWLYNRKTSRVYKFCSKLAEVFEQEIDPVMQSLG
How it was run: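 Buffer: 50 mM HEPES pH 7.5, 50 mM NaCl, 0.01% BSA, 0.01% Triton X-100, 2 mM DTT. The signal was normalised to plate controls and fitted with a four-parameter curve to give IC50.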

**Q.** With Cc1noc(C)c1-c1cnc2c(c1)c(-c1cnn(C(C)(C)C(=O)O)c1)cn2C(c1ccccn1)C1CCCC1 (centres unmarked) [P-0035, 2-(4-(1-(cyclopentyl(pyridin-2-yl)methyl)-5-(3,5-dimethylisoxazol-4-yl)-1H-pyrrolo[2,3-b]pyridin-3-yl)-1H-pyrazol-1-yl)-2-methylpropanoic acid] as the compound, how does the IC50 read?
**A.** Its IC50 is 0.0001 to 1 µM.

**Q.** How did the IC50 turn out when Cc1noc(C)c1-c1cnc2c(c1)c(-c1cnn(CC(=O)O)c1)cn2C(c1ccccn1)C1CCCC1 (centres unmarked) [P-0036, 2-(4-(1-(cyclopentyl(pyridin-2-yl)methyl)-5-(3,5-dimethylisoxazol-4-yl)-1H-pyrrolo[2,3-b]pyridin-3-yl)-1H-pyrazol-1-yl)acetic acid] was run?
**A.** Its IC50 is 0.0001 to 1 µM.

**Q.** Which IC50 does the source give for Cc1noc(C)c1-c1cnc2c(c1)c(-c1cnn(CC(C)(C)O)c1)cn2C(c1ccccn1)C1CCCC1 (centres unmarked) [P-0037, 1-(4-(1-(cyclopentyl(pyridin-2-yl)methyl)-5-(3,5-dimethylisoxazol-4-yl)-1H-pyrrolo[2,3-b]pyridin-3-yl)-1H-pyrazol-1-yl)-2-methylpropan-2-ol] here?
**A.** Its IC50 is 1 to 8 µM.

**Q.** With Cc1noc(C)c1-c1cnc2c(c1)c(-c1ccc(C(=O)O)c(Cl)c1)cn2C(c1ccccn1)C1CCCC1 (centres unmarked) [P-0038, 2-chloro-4-(1-(cyclopentyl(pyridin-2-yl)methyl)-5-(3,5-dimethylisoxazol-4-yl)-1H-pyrrolo[2,3-b]pyridin-3-yl)benzoic acid] as the compound, how does the IC50 read?
**A.** The IC50 was 0.0001 to 1 µM.

**Q.** COC(=O)c1cc(-c2cn(C(c3ccccn3)C3CCCC3)c3ncc(-c4c(C)noc4C)cc23)ccn1 (centres unmarked) [P-0040, methyl 4-(1-(cyclopentyl(pyridin-2-yl)methyl)-5-(3,5-dimethylisoxazol-4-yl)-1H-pyrrolo[2,3-b]pyridin-3-yl)picolinate] was tested. Which IC50 did it give?
**A.** Its IC50 is 0.0001 to 1 µM.

**Q.** For Cc1noc(C)c1-c1cnc2c(c1)c(-c1ccnc(C(=O)O)c1)cn2C(C1CC1)C1CC1 [P-0041, 4-(1-(dicyclopropylmethyl)-5-(3,5-dimethylisoxazol-4-yl)-1H-pyrrolo[2,3-b]pyridin-3-yl)picolinic acid], which IC50 is on record?
**A.** Its IC50 is 0.0001 to 1 µM.

**Q.** Which IC50 does the source give for Cc1noc(C)c1-c1cnc2c(c1)c(-c1ccnc(C(=O)O)c1)cn2Cc1ccccc1 [P-0042, 4-(1-benzyl-5-(3,5-dimethylisoxazol-4-yl)-1H-pyrrolo[2,3-b]pyridin-3-yl)picolinic acid] here?
**A.** Its IC50 is 0.0001 to 1 µM.

**Q.** Cc1noc(C)c1-c1cnc2c(c1)c(-c1ccnc(C(=O)O)c1)cn2C(c1ccccn1)C1CCC1 (centres unmarked) [P-0043, 4-(1-(cyclobutyl(pyridin-2-yl)methyl)-5-(3,5-dimethylisoxazol-4-yl)-1H-pyrrolo[2,3-b]pyridin-3-yl)picolinic acid] was tested. Which IC50 did it give?
**A.** Its IC50 is 0.0001 to 1 µM.

**Q.** Cc1noc(C)c1-c1cnc2c(c1)c(-c1ccnc(C(=O)O)c1)cn2Cc1ccccn1 [P-0044, 4-(5-(3,5-dimethylisoxazol-4-yl)-1-(pyridin-2-ylmethyl)-1H-pyrrolo[2,3-b]pyridin-3-yl)picolinic acid] was tested. Which IC50 did it give?
**A.** The IC50 was 0.0001 to 1 µM.

**Q.** Which IC50 does the source give for Cc1noc(C)c1-c1cnc2c(c1)c(-c1ccnc(C(=O)O)c1)cn2CC1CC1 [P-0045, 4-(1-(cyclopropylmethyl)-5-(3,5-dimethylisoxazol-4-yl)-1H-pyrrolo[2,3-b]pyridin-3-yl)picolinic acid] here?
**A.** The IC50 was 0.0001 to 1 µM.

**Q.** For COC(=O)c1cc(-c2cn(C(c3ccccn3)C3CCC3)c3ncc(-c4c(C)noc4C)cc23)ccn1 (centres unmarked) [P-0046, methyl 4-(1-(cyclobutyl(pyridin-2-yl)methyl)-5-(3,5-dimethylisoxazol-4-yl)-1H-pyrrolo[2,3-b]pyridin-3-yl)picolinate], which IC50 is on record?
**A.** Its IC50 is 0.0001 to 1 µM.

**Q.** How did the IC50 turn out when COc1cc(C(=O)O)ccc1-c1cn([C@@H](C)c2ccccn2)c2ncc(-c3c(C)noc3C)cc12 [P-0047, (S)-4-(5-(3,5-dimethylisoxazol-4-yl)-1-(1-(pyridin-2-yl)ethyl)-1H-pyrrolo[2,3-b]pyridin-3-yl)-3-methoxybenzoic acid] was run?
**A.** The IC50 was 0.0001 to 1 µM.

**Q.** With Cc1noc(C)c1-c1cnc2c(c1)c(-c1cccc(C(=O)O)c1)cn2Cc1ccccc1 [P-0048, 3-(1-benzyl-5-(3,5-dimethylisoxazol-4-yl)-1H-pyrrolo[2,3-b]pyridin-3-yl)benzoic acid] as the compound, how does the IC50 read?
**A.** The IC50 was 0.0001 to 1 µM.

**Q.** For Cc1noc(C)c1-c1cnc2c(c1)c(-c1cccc(C(=O)O)c1)cn2Cc1ccccn1 [P-0049, 3-(5-(3,5-dimethylisoxazol-4-yl)-1-(pyridin-2-ylmethyl)-1H-pyrrolo[2,3-b]pyridin-3-yl)benzoic acid], which IC50 is on record?
**A.** Its IC50 is 0.0001 to 1 µM.

**Q.** Which IC50 does the source give for Cc1noc(C)c1-c1cnc2c(c1)c(-c1cccc(C(=O)O)c1)cn2CC1CC1 [P-0050, 3-(1-(cyclopropylmethyl)-5-(3,5-dimethylisoxazol-4-yl)-1H-pyrrolo[2,3-b]pyridin-3-yl)benzoic acid] here?
**A.** The IC50 was 0.0001 to 1 µM.

**Q.** How did the IC50 turn out when Cc1noc(C)c1-c1cnc2c(c1)c(C#CC(C)(C)C(=O)O)cn2Cc1ccccc1 [P-0051, 4-(1-benzyl-5-(3,5-dimethylisoxazol-4-yl)-1H-pyrrolo[2,3-b]pyridin-3-yl)-2,2-dimethylbut-3-ynoic acid] was run?
**A.** The IC50 was 0.0001 to 1 µM.

**Q.** COC(=O)c1cc(-n2cc(Cc3ccccc3)c3ncc(-c4c(C)noc4C)cc32)ccn1 [P-0052, methyl 4-(3-benzyl-6-(3,5-dimethylisoxazol-4-yl)-1H-pyrrolo[3,2-b]pyridin-1-yl)picolinate] was tested. Which IC50 did it give?
**A.** The IC50 was 0.0001 to 1 µM.

**Q.** How did the IC50 turn out when Cc1noc(C)c1-c1cnc2c(Cc3ccccc3)cn(-c3ccnc(C(=O)O)c3)c2c1 [P-0053, 4-(3-benzyl-6-(3,5-dimethylisoxazol-4-yl)-1H-pyrrolo[3,2-b]pyridin-1-yl)picolinic acid] was run?
**A.** The IC50 was 0.0001 to 1 µM.

**Q.** For Cc1noc(C)c1-c1cnc2c(C(=O)c3ccccc3)cn(-c3ccnc(C(=O)O)c3)c2c1 [P-0054, 4-(3-benzoyl-6-(3,5-dimethylisoxazol-4-yl)-1H-pyrrolo[3,2-b]pyridin-1-yl)picolinic acid], which IC50 is on record?
**A.** Its IC50 is 0.0001 to 1 µM.

**Q.** Which IC50 does the source give for Cc1noc(C)c1-c1cnc2c(c1)c(-c1ccc(C(=O)O)cc1OC(F)(F)F)cn2-c1ccc(C2CC2)nc1 [P-0388, 4-(1-(6-cyclopropylpyridin-3-yl)-5-(3,5-dimethylisoxazol-4-yl)-1H-pyrrolo[2,3-b]pyridin-3-yl)-3-(trifluoromethoxy)benzoic acid] here?
**A.** Its IC50 is 0.0001 to 1 µM.

**Q.** How did the IC50 turn out when Cc1noc(C)c1-c1cnc2c(c1)c(-c1ccc(C(=O)O)cc1OC(F)(F)F)cn2C1CCC(C#N)C1 (centres unmarked) [P-0389, 4-(1-(3-cyanocyclopentyl)-5-(3,5-dimethylisoxazol-4-yl)-1H-pyrrolo[2,3-b]pyridin-3-yl)-3-(trifluoromethoxy)benzoic acid] was run?
**A.** The IC50 was 0.0001 to 1 µM.

**Q.** For Cc1noc(C)c1-c1cnc2c(c1)c(-c1c(Cl)cc(C(=O)O)cc1OCC(F)F)cn2-c1cnc(C2CC2)nc1 [P-0390, 3-chloro-4-(1-(2-cyclopropylpyrimidin-5-yl)-5-(3,5-dimethylisoxazol-4-yl)-1H-pyrrolo[2,3-b]pyridin-3-yl)-5-(2,2-difluoroethoxy)benzoic acid], which IC50 is on record?
**A.** Its IC50 is 0.0001 to 1 µM.

**Q.** How did the IC50 turn out when Cc1noc(C)c1-c1cnc2c(c1)c(-c1c(Cl)cc(C(=O)O)cc1OC1CCC1)cn2-c1cnc(C2CC2)nc1 [P-0391, 3-chloro-5-cyclobutoxy-4-(1-(2-cyclopropylpyrimidin-5-yl)-5-(3,5-dimethylisoxazol-4-yl)-1H-pyrrolo[2,3-b]pyridin-3-yl)benzoic acid] was run?
**A.** The IC50 was 0.0001 to 1 µM.

**Q.** Which IC50 does the source give for COc1ncc(-n2cc(-c3ccc(C(=O)O)cc3OC(F)(F)F)c3cc(-c4c(C)noc4C)cnc32)cn1 [P-0392, 4-(5-(3,5-dimethylisoxazol-4-yl)-1-(2-methoxypyrimidin-5-yl)-1H-pyrrolo[2,3-b]pyridin-3-yl)-3-(trifluoromethoxy)benzoic acid] here?
**A.** The IC50 was 0.0001 to 1 µM.

**Q.** Which IC50 does the source give for Cc1noc(C)c1-c1cnc2c(c1)c(-c1c(Cl)cc(C(=O)O)cc1OC(C)C)cn2-c1cnc(C2CC2)nc1 [P-0393, 3-chloro-4-(1-(2-cyclopropylpyrimidin-5-yl)-5-(3,5-dimethylisoxazol-4-yl)-1H-pyrrolo[2,3-b]pyridin-3-yl)-5-isopropoxybenzoic acid] here?
**A.** Its IC50 is 0.0001 to 1 µM.

**Q.** With Cc1noc(C)c1-c1cnc2c(c1)c(-c1c(F)cc(C(=O)O)cc1OC1CC1)cn2C(C1CC1)C1CC1 [P-0394, 3-cyclopropoxy-4-(1-(dicyclopropylmethyl)-5-(3,5-dimethylisoxazol-4-yl)-1H-pyrrolo[2,3-b]pyridin-3-yl)-5-fluorobenzoic acid] as the compound, how does the IC50 read?
**A.** The IC50 was 0.0001 to 1 µM.

**Q.** Cc1noc(C)c1-c1cnc2c(c1)c(-c1c(Cl)cc(C(=O)O)cc1OC(F)(F)F)cn2-c1ncccc1C#N [P-0395, 3-chloro-4-(1-(3-cyanopyridin-2-yl)-5-(3,5-dimethylisoxazol-4-yl)-1H-pyrrolo[2,3-b]pyridin-3-yl)-5-(trifluoromethoxy)benzoic acid] was tested. Which IC50 did it give?
**A.** The IC50 was 0.0001 to 1 µM.

**Q.** With Cc1noc(C)c1-c1cnc2c(c1)c(-c1c(Cl)cc(C(=O)O)cc1OC1CCC1)cn2-c1ncccc1C#N [P-0396, 3-chloro-4-(1-(3-cyanopyridin-2-yl)-5-(3,5-dimethylisoxazol-4-yl)-1H-pyrrolo[2,3-b]pyridin-3-yl)-5-cyclobutoxybenzoic acid] as the compound, how does the IC50 read?
**A.** The IC50 was 0.0001 to 1 µM.

**Q.** With Cc1noc(C)c1-c1cnc2c(c1)c(-c1c(F)cc(C(=O)O)cc1OC1CC1)cn2C1CCOCC1 [P-0397, 3-cyclopropoxy-4-(5-(3,5-dimethylisoxazol-4-yl)-1-(tetrahydro-2H-pyran-4-yl)-1H-pyrrolo[2,3-b]pyridin-3-yl)-5-fluorobenzoic acid] as the compound, how does the IC50 read?
**A.** The IC50 was 0.0001 to 1 µM.

**Q.** Which IC50 does the source give for CCOc1nc(C(=O)O)c(Cl)cc1-c1cn(C2CCOCC2)c2ncc(-c3c(C)noc3C)cc12 [P-0398, 3-chloro-5-(5-(3,5-dimethylisoxazol-4-yl)-1-(tetrahydro-2H-pyran-4-yl)-1H-pyrrolo[2,3-b]pyridin-3-yl)-6-ethoxypicolinic acid] here?
**A.** Its IC50 is 0.0001 to 1 µM.

**Q.** Cc1noc(C)c1-c1cnc2c(c1)c(-c1ccc(C(=O)O)cc1OC(F)(F)F)cn2-c1ccc(=O)n(C)c1 [P-0399, 4-(5-(3,5-dimethylisoxazol-4-yl)-1-(1-methyl-6-oxo-1,6-dihydropyridin-3-yl)-1H-pyrrolo[2,3-b]pyridin-3-yl)-3-(trifluoromethoxy)benzoic acid] was tested. Which IC50 did it give?
**A.** Its IC50 is 0.0001 to 1 µM.

**Q.** For CCc1noc(C)c1-c1cnc2c(c1)c(-c1ccc(C(=O)O)cc1OC(F)(F)F)cn2C1CCOCC1 [P-0400, 4-(5-(3-ethyl-5-methylisoxazol-4-yl)-1-(tetrahydro-2H-pyran-4-yl)-1H-pyrrolo[2,3-b]pyridin-3-yl)-3-(trifluoromethoxy)benzoic acid], which IC50 is on record?
**A.** Its IC50 is 0.0001 to 1 µM.
